Test results published in article PMC6718453 (Frontiers in Aging Neuroscience, 2019).
Values after ≈ are worked out from the molar mass of the structure shown.

Molecular target: acetylcholinesterase (AChE)

O=C(/C=C/C=C/c1ccc2c(c1)OCO2)N1CCCCC1 [piperine]
IC50 ± SEM: 76.6 ± 0.08 µg/mL (≈ 268 µM)
